This is an account of results in patent publication US12054486B2, “Pyridine derivatives and their use as sodium channel activators” (Xenon Pharmaceuticals Inc., priority 2021, dated 2024).

In data set [1] the target is sodium channel isoforms of interest stably expressed in Human Embryonic Kidney Cells (voltage-gated sodium channel, particularly NaV1.1) (Homo sapiens, UniProt P35498). In words: automated planar patch clamp assay of sodium channel gating (area under the sodium current trace). It is filed as cell-based. The settings on record: HEK cells, voltage step from −120 mV to 0 mV, increasing concentrations. The essentials:
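Sodium channel isoforms stably expressed in HEK cells, recorded by automated planar patch clamp with depolarizing steps from −120 mV to 0 mV at increasing compound concentrations. Area under the current trace quantifies gating effect; peak current, inactivation time constant and steady-state inactivation also measured; potency from concentration responses.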
On the technique in general: Patch clamp records ionic current or voltage across a cell membrane.

The target of data set [2] is NaV1.1 (Homo sapiens, UniProt P35498). The settings on record: NaV1.1-expressing HEK cells; cited from earlier work.
Data set [3] has as its target NaV1.5 (Homo sapiens, UniProt Q14524). The settings on record: relative to NaV1.1 activation; cited from earlier work.
The target of data set [4] is NaV1.2 (Homo sapiens, UniProt Q99250). The settings on record: relative to NaV1.1 activation; cited from earlier work.
Sequence of NaV1.2 (Q99250 whole entry): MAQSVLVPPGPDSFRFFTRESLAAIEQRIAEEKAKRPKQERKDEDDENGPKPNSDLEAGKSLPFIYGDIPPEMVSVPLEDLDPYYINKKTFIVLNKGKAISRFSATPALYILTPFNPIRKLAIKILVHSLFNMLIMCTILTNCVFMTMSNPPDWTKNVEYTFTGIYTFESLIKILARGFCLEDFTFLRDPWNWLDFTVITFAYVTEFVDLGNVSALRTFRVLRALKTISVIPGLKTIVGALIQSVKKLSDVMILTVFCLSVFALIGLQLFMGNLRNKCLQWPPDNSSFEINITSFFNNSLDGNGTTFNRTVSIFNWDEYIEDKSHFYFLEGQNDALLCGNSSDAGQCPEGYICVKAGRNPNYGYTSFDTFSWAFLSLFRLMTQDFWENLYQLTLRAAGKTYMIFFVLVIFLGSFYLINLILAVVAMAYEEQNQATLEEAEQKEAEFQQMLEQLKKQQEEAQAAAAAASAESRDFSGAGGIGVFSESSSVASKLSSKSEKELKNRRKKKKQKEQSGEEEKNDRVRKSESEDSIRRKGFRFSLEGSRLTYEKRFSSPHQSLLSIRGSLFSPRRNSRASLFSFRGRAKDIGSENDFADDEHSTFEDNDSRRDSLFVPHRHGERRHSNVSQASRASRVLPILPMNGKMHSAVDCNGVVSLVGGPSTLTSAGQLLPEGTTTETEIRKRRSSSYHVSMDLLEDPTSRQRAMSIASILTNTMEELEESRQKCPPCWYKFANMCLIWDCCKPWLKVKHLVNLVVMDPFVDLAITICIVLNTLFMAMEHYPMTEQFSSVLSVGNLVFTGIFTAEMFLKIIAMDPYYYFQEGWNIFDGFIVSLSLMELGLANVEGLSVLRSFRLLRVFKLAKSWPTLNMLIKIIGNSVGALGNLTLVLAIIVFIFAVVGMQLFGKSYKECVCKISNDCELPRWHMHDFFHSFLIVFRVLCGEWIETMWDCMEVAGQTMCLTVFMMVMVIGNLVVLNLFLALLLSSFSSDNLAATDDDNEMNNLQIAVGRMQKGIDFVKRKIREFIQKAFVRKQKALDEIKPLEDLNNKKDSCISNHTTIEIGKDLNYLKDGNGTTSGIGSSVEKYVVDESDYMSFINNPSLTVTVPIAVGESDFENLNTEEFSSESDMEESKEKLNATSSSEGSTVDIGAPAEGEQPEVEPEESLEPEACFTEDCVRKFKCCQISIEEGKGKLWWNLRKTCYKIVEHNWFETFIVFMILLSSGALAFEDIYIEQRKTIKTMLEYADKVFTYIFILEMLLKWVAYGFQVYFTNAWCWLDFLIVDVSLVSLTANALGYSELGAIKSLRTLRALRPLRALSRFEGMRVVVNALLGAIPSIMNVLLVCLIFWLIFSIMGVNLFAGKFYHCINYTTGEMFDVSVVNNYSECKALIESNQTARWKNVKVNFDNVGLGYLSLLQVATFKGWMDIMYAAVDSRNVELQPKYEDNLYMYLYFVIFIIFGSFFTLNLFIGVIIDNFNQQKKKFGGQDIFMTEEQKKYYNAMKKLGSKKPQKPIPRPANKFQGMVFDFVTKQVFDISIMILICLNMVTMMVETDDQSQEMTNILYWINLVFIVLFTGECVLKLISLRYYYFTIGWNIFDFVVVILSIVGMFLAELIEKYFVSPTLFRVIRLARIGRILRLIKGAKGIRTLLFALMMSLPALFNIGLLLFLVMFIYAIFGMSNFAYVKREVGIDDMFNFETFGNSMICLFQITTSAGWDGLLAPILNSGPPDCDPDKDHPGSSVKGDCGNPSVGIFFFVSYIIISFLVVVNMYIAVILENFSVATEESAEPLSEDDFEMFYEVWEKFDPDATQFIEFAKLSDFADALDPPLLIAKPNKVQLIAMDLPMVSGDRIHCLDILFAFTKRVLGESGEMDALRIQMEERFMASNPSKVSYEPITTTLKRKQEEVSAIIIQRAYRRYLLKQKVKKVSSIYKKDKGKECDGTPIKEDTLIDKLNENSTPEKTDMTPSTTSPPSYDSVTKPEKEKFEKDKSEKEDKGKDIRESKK

pEC50: −log10 of the molar value. A value given as a limit tells only on which side of the number the result lay.

Sequence of NaV1.5 (Q14524 whole entry): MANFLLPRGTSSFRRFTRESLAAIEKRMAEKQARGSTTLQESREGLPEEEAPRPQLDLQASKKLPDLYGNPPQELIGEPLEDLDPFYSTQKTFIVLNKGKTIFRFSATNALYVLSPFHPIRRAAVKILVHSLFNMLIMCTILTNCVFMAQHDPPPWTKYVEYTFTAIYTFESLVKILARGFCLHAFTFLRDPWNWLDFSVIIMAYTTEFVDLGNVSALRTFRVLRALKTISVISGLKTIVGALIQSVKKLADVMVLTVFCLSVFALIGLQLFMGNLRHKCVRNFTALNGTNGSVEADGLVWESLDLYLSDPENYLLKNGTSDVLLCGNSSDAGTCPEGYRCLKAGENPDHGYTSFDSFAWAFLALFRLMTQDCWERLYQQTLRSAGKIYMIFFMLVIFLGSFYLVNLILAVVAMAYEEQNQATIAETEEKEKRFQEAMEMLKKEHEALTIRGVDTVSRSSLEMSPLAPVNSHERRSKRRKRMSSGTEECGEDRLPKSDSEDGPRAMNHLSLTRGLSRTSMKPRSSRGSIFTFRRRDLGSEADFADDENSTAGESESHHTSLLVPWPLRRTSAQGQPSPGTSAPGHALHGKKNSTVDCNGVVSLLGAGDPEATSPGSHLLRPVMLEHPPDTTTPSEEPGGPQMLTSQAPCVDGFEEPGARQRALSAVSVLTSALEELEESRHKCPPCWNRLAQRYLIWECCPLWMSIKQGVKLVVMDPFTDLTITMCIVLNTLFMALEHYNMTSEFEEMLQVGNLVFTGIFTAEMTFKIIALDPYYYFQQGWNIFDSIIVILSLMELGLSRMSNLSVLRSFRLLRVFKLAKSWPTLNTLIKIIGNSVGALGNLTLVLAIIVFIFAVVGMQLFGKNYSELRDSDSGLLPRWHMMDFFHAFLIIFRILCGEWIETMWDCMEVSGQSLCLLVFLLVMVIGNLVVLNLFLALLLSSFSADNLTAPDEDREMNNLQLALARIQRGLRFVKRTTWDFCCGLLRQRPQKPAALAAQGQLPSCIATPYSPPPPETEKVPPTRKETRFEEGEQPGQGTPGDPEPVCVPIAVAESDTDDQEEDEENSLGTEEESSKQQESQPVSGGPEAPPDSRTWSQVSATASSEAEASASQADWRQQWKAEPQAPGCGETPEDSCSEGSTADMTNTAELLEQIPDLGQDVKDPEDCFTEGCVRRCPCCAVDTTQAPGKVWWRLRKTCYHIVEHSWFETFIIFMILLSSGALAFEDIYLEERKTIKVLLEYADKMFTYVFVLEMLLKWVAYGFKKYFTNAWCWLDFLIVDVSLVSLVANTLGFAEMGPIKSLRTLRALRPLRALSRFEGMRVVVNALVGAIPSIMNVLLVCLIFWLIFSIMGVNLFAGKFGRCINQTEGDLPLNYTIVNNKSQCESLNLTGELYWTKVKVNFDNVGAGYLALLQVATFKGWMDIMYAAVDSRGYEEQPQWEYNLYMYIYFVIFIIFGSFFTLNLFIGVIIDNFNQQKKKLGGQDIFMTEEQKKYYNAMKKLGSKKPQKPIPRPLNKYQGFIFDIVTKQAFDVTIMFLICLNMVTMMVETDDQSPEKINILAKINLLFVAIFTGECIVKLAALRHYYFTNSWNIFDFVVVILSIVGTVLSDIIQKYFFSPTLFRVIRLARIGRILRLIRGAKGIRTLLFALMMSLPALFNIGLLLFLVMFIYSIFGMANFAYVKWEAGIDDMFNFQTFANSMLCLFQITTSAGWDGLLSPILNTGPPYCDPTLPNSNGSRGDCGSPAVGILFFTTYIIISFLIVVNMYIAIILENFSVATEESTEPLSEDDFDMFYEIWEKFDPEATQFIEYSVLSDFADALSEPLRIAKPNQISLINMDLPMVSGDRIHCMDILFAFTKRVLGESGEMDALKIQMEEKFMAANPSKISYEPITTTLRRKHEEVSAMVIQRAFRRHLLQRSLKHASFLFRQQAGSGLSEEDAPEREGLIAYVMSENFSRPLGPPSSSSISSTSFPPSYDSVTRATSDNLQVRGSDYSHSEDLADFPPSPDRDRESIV

On to `FC1(F)CCN(c2nccc(-c3ccc4[nH]ncc4c3)c2-c2nc3c([nH]2)CCOC3)C1` [Example 74, 2-[2-(3,3-difluoropyrrolidin-1-yl)-4-(1H-indazol-5-yl)-3-pyridyl]-1,4,6,7-tetrahydropyrano[3,4-d]imidazole], for which, in data set [1], the pEC50 is 5.00 to 6.00 and the “Empirical Emax” value was “++++ (++++ indicates a value greater than 7.5)”.
On to `Fc1cccc(-c2ccnc(N3CCC(F)(F)C3)c2-c2nc3c([nH]2)CCOC3)c1` [Example 75, 2-[2-(3,3-difluoropyrrolidin-1-yl)-4-(3-fluorophenyl)-3-pyridyl]-1,4,6,7-tetrahydropyrano[3,4-d]imidazole], for which, in data set [1], the pEC50 was greater than 6.00 and the “Empirical Emax” value is on record as “++++ (++++ indicates a value greater than 7.5)”.
The corresponding values for `FC1(F)CCN(c2nccc(-c3ccccn3)c2-c2nc3c([nH]2)CCOC3)C1` [Example 76, 2-[2-(3,3-difluoropyrrolidin-1-yl)-4-(2-pyridyl)-3-pyridyl]-1,4,6,7-tetrahydropyrano[3,4-d]imidazole] are 4.30 to 5.00 and “+++ (+++ indicates a value from 5.0 up to 7.5 μM)”.
For `Fc1cccc(-c2ccnc(N3CCC(F)(F)C3)c2-c2nc3c([nH]2)CCOC3)c1F` [Example 77, 2-[4-(2,3-difluorophenyl)-2-(3,3-difluoropyrrolidin-1-yl)-3-pyridyl]-1,4,6,7-tetrahydropyrano[3,4-d]imidazole], in data set [1], the pEC50 is greater than 6.00 and the “Empirical Emax” value is listed as “++++ (++++ indicates a value greater than 7.5)”.
As for `Fc1ccccc1-c1ccnc(N2CCC(F)(F)C2)c1-c1nc2ccncc2[nH]1` [Example 78, 2-[2-(3,3-difluoropyrrolidin-1-yl)-4-(2-fluorophenyl)-3-pyridyl]-1H-imidazo[4,5-c]pyridine], in data set [1], the pEC50 is greater than 6.00 and the “Empirical Emax” value was “++++ (++++ indicates a value greater than 7.5)”.
For `Cc1cc2nc(-c3c(-c4ccccc4F)ccnc3N3CCC(F)(F)C3)[nH]c2cn1` [Example 79, 2-[2-(3,3-difluoropyrrolidin-1-yl)-4-(2-fluorophenyl)-3-pyridyl]-6-methyl-3H-imidazo[4,5-c]pyridine] the same measures were greater than 6.00 and “++++ (++++ indicates a value greater than 7.5)”.
For the molecule `Cn1cc2nc(-c3c(-c4ccccc4F)ccnc3N3CCC(F)(F)C3)[nH]c2n1` [Example 80, 5-[2-(3,3-difluoropyrrolidin-1-yl)-4-(2-fluorophenyl)-3-pyridyl]-2-methyl-4H-imidazo[4,5-c]pyrazole], in data set [1], the pEC50 is 5.00 to 6.00 and the “Empirical Emax” value is given as “+++ (+++ indicates a value from 5.0 up to 7.5 μM)”.
On to `CCCCNS(=O)(=O)c1ccc(OC)c(-c2nnc3c4ccccc4c(C)nn23)c1` [Lu AE98134], for which the “concentration from which the total area under the curve for the duration of the depolarizing pulse is increased” value in data set [2] was no less than 1 µM. In addition, the “selectivity against NaV1.5” value in data set [3] was “low selectivity”. For the same molecule, the “selectivity against NaV1.2” value in data set [4] is recorded as “moderate selectivity”.

A word on the pEC50: it is the EC50 on a negative log10 scale, so that one unit is a factor of ten. A lower pEC50 goes with a large EC50.
